{
  "source": "patent US12419305B2",
  "about": "“Antimicrobial compositions” (Firmenich SA, priority 2018, dated 2025)",
  "key": {"E. coli ATCC 10536": {"tested_on": "E. coli ATCC 10536", "assay": "BCT test (bacterial contact time), 45 s, log reduction / effect fraction; CI by Compusyn", "format": "cell-based, Escherichia coli", "details": "Escherichia coli, ATCC10536, 45 s, 45 s, in 20% EtOH", "method_in_brief": "(§1)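 Perfume ingredients, alone or combined, in ethanol were mixed 1:1 with ~1×10^8 CFU/mL log-phase bacteria in TSB for the stated contact time. Survivors were estimated by serial dilution and OD600 growth at 37 °C; log reduction versus ethanol control. CI from effect fractions via Compusyn (<0.9 synergy, >1.0 antagonism).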"}, "[1]": {"tested_on": "Pseudomonas aeruginosa ATCC 15442", "assay": "BCT test (bacterial contact time), 60 s, log reduction / effect fraction; CI by Compusyn", "format": "cell-based", "details": "Pseudomonas aeruginosa, ATCC15442, 1 min, BCT 60 s, in 25% EtOH; for log reduction at 0.3 % strength: Dose 0.3 % w/v; for log reduction at 0.4 % strength: Dose 0.4 % w/v", "method_in_brief": "as §1"}, "[2]": {"tested_on": "Salmonella enterica ATCC 10708", "assay": "BCT test (bacterial contact time), 60 s, log reduction / effect fraction; CI by Compusyn", "format": "cell-based", "details": "Salmonella enterica, ATCC10708, 1 min, BCT 60 s, in 25% EtOH", "method_in_brief": "as §1"}, "S. aureus ATCC 6538": {"tested_on": "S. aureus ATCC 6538", "assay": "BCT test (bacterial contact time), 60 s, log reduction / effect fraction; CI by Compusyn", "format": "cell-based, Staphylococcus aureus", "details": "Staphylococcus aureus, ATCC6538, 1 min, 60 s, in 25% EtOH; for log reduction at 0.5 % strength: dose 0.500 % w/v", "method_in_brief": "as §1"}, "C. xerosis ATCC 373": {"tested_on": "C. xerosis ATCC 373", "assay": "BCT test (bacterial contact time), 120 s, log reduction / effect fraction; CI by Compusyn", "format": "cell-based", "details": "Corynebacterium xerosis, ATCC373, 2 min, contact 120 s, 25% EtOH", "protocol": "C. xerosis: Suspensions of the C. xerosis ATCC 373 strain were prepared as follows: Stock cultures (stored at −80° C.) were thawed and subcultured onto Tryptic Soy Agar media with Tween 80 (TSA-TW80), and incubated at 37° C. for 48 h. The primary cultures were subcultured onto TSA-TW80 again, to prepare the secondary cultures. Single colonies of the secondary cultures were selected and used to inoculate 30 ml brain heart infusion broth with Tween 80 (BHI-TW80). The inoculated broth was incubated at 37° C. at 180 rpm for 24 h. Aliquots (1 ml) of the 24 h culture were inoculated into 30 ml of fresh BHI-TW80 broth media, and incubated at 37° C. at 180 rpm for 48 h. Aliquots (2-3 ml) of the 48 h culture were inoculated into four 50 ml of fresh BHI-TW80 broth media, and incubated at 37° C. 180 rpm for 4-6 hrs. When the OD 600 nm reached the target value of 1.6, cells were harvested by centrifugation at 5000 rpm for 10 min, and then resuspended in the same fresh BHI-TW80 at a concentration of 10^9 to 10^10 cfu/mL. This suspension was used as the bacterial suspension for the BCT test.\nBCT Test: Test compositions at a range of concentrations (either combinations of more than one perfume ingredient, and comparative compositions comprising the single perfume ingredients) were prepared in ethanol. Five replicates of each test composition were added into 96-well microtiter plates (120 μl per well), with row B containing control compositions containing the ethanol solution alone. 120 μl of bacterial cell suspensions at a concentration of approximately 1×10^8 bacteria per mL (as prepared above) were added to each well of the microtiter plate. The bacterial suspensions were incubated with the test solutions for 45, 60, or 120 seconds. Following the incubation of the bacterial suspensions with the test solutions, serial dilutions of the bacterial suspensions were generated (three serial 1:10 dilutions, followed by 17 serial 1:2 dilutions), in multiwell microtiter plates.\nEach plate was sealed and incubated at 37° C. under agitation (180 rpm). After incubation, the turbidity of the wells (OD600 nm) was determined using a Tecan microplate reader. Turbid wells were regarded as positive growth, due to the presence of viable cells. The total number of viable cells (log CFU) for each sample was calculated. And the log reduction for each test composition at the final concentration (dose) was calculated against the control sample of the ethanol solution.\nDetermination of Synergy via the Combination Index (CI): The CI was calculated using Compusyn software (ComboSyn, Inc., as created by Dr. Dorothy Chou in 2005), according to the manufacturer's instructions. The concentration of each test composition (combinations of more than one perfume ingredient, and comparative compositions comprising the single perfume ingredients used to generate the combination) and their corresponding effect fraction was entered, and the corresponding CI calculated.\nWhen the calculated CI values were less than 0.9, the combination of perfume ingredients was regarded as having synergistic effect. When the calculated CI was between 1.0 a 0.9, the combination of perfume ingredients was regarded as having an additive effect. When the calculated CI was greater than 1.0, the combination of perfume ingredients was regarded as having an antagonistic effect."}},
  "data": [
    {"smiles": "O=c1ccc2ccccc2o1", "note": "[Coumarine, 2H-chromen-2-one]", "values": [
      {"measurement": "log reduction at 0.5 % strength", "setting": "E. coli ATCC 10536; dose 0.500 % w/v", "result": -0.1},
      {"measurement": "log reduction at 0.6 % strength", "setting": "E. coli ATCC 10536; dose 0.600 % w/v, read-out: Log reduction", "result": 0.2},
      {"measurement": "log reduction at 0.65 % strength", "setting": "E. coli ATCC 10536; dose 0.650 % w/v", "result": 0.5},
      {"measurement": "log reduction at 0.7 % strength", "setting": "E. coli ATCC 10536; dose 0.700 % w/v", "result": 2.8},
      {"measurement": "log reduction at 0.8 % strength", "setting": "E. coli ATCC 10536; dose 0.800 % w/v", "result": 7.3},
      {"measurement": "log reduction at 0.3 % strength", "setting": "[1]; read-out: Log reduction", "result": 0.4},
      {"measurement": "log reduction at 0.35 % strength", "setting": "[1]; Dose 0.35 % w/v", "result": 0.4},
      {"measurement": "log reduction at 0.4 % strength", "setting": "[1]; read-out: Log reduction", "result": 0.7},
      {"measurement": "log reduction at 0.45 % strength", "setting": "[1]; Dose 0.45 % w/v, read-out: Log reduction", "result": 1.2},
      {"measurement": "log reduction at 0.5 % strength", "setting": "[1]; Dose 0.5 % w/v", "result": 2.9},
      {"measurement": "log reduction at 0.3 % strength", "setting": "[2]; Dose 0.300 % w/v", "result": 0.2},
      {"measurement": "log reduction at 0.4 % strength", "setting": "[2]; Dose 0.400 % w/v", "result": 3},
      {"measurement": "log reduction at 0.45 % strength", "setting": "[2]; Dose 0.450 % w/v", "result": 5.1},
      {"measurement": "log reduction at 0.5 % strength", "setting": "[2]; Dose 0.500 % w/v", "result": 7.5},
      {"measurement": "log reduction at 0.6 % strength", "setting": "[2]; Dose 0.600 % w/v", "result": 7.5},
      {"measurement": "log reduction at 0.5 % strength", "setting": "S. aureus ATCC 6538; read-out: Log reduction", "result": -0.1},
      {"measurement": "log reduction at 0.75 % strength", "setting": "S. aureus ATCC 6538; dose 0.750 % w/v, read-out: Log reduction", "result": 0.4},
      {"measurement": "log reduction at 0.875 % strength", "setting": "S. aureus ATCC 6538; dose 0.875 % w/v", "result": 0.8},
      {"measurement": "log reduction at 1 % strength", "setting": "S. aureus ATCC 6538; dose 1.000 % w/v, read-out: Log reduction", "result": 2.1},
      {"measurement": "log reduction at 1.25 % strength", "setting": "S. aureus ATCC 6538; dose 1.250 % w/v", "result": 7},
      {"measurement": "log reduction at 0.75 % strength", "setting": "C. xerosis ATCC 373; dose 0.75% w/v", "result": -0.2},
      {"measurement": "log reduction at 1 % strength", "setting": "C. xerosis ATCC 373; dose 1.0% w/v", "result": 0.8},
      {"measurement": "log reduction at 1.25 % strength", "setting": "C. xerosis ATCC 373; dose 1.25% w/v", "result": 2.6},
      {"measurement": "log reduction at 1.5 % strength", "setting": "C. xerosis ATCC 373; dose 1.5% w/v", "result": 2.7}
    ]},
    {"smiles": "OC/C=C/c1ccccc1", "note": "[Cinnamic alcohol, (2E)-3-phenyl-2-propen-1-ol]", "values": [
      {"measurement": "log reduction at 0.2 % strength", "setting": "E. coli ATCC 10536; dose 0.200 % w/v", "result": 0.1},
      {"measurement": "log reduction at 0.25 % strength", "setting": "E. coli ATCC 10536; dose 0.250 % w/v", "result": 0.6},
      {"measurement": "log reduction at 0.3 % strength", "setting": "E. coli ATCC 10536; dose 0.300 % w/v", "result": 1.4},
      {"measurement": "log reduction at 0.35 % strength", "setting": "E. coli ATCC 10536; dose 0.350 % w/v", "result": 4.2},
      {"measurement": "log reduction at 0.4 % strength", "setting": "E. coli ATCC 10536; dose 0.400 % w/v", "result": 7.3},
      {"measurement": "log reduction at 0.25 % strength", "setting": "[1]; Dose 0.25 % w/v, read-out: Log reduction", "result": 4.1},
      {"measurement": "log reduction at 0.3 % strength", "setting": "[1]; read-out: Log reduction", "result": 6.7},
      {"measurement": "log reduction at 0.4 % strength", "setting": "[1]; read-out: Log reduction", "result": 7.5},
      {"measurement": "log reduction at 0.15 % strength", "setting": "[2]; Dose 0.15 % w/v", "result": 0.5},
      {"measurement": "log reduction at 0.175 % strength", "setting": "[2]; Dose 0.175 % w/v", "result": 1},
      {"measurement": "log reduction at 0.2 % strength", "setting": "[2]; Dose 0.2 % w/v", "result": 1.5},
      {"measurement": "log reduction at 0.25 % strength", "setting": "[2]; Dose 0.25 % w/v", "result": 4.9},
      {"measurement": "log reduction at 0.3 % strength", "setting": "[2]; Dose 0.3 % w/v", "result": 7.8},
      {"measurement": "log reduction at 0.3 % strength", "setting": "S. aureus ATCC 6538; dose 0.300 % w/v, read-out: Log reduction", "result": 1.8},
      {"measurement": "log reduction at 0.35 % strength", "setting": "S. aureus ATCC 6538; dose 0.350 % w/v, read-out: Log reduction", "result": 2.6},
      {"measurement": "log reduction at 0.4 % strength", "setting": "S. aureus ATCC 6538; dose 0.400 % w/v, read-out: Log reduction", "result": 5.5},
      {"measurement": "log reduction at 0.45 % strength", "setting": "S. aureus ATCC 6538; dose 0.45 % w/v", "result": 6.9},
      {"measurement": "log reduction at 0.5 % strength", "setting": "S. aureus ATCC 6538; read-out: Log reduction", "result": 6.9},
      {"measurement": "log reduction at 0.25 % strength", "setting": "C. xerosis ATCC 373; dose 0.25% w/v, read-out: Log reduction", "result": 0},
      {"measurement": "log reduction at 0.5 % strength", "setting": "C. xerosis ATCC 373; dose 0.5% w/v", "result": 2.9},
      {"measurement": "log reduction at 0.6 % strength", "setting": "C. xerosis ATCC 373; dose 0.6% w/v", "result": 4.3},
      {"measurement": "log reduction at 0.7 % strength", "setting": "C. xerosis ATCC 373; dose 0.7% w/v", "result": 6},
      {"measurement": "log reduction at 0.8 % strength", "setting": "C. xerosis ATCC 373; dose 0.8% w/v", "result": 7.2}
    ]}
  ]
}
